In US12252481B2, “Anti-viral compounds” (Aligos Therapeutics, Inc., priority 2021, dated 2025):
pEC50, pIC50: −log10 of the molar value. Where two headings read alike, the source gives them in different places.

What was measured:
[1] = system: B.1.1.7 lineage SARS-CoV-2; experiment: microbe, parasite or virus in culture; format: cell-based
[2] = system: human beta-coronavirus OC43; experiment: OC43 coronavirus antiviral assay in HeLa cells (cytopathic effect, cell-titer-glo); format: cell-based; settings: Betacoronavirus 1, OC43, HeLa, 144 h, 6 days at 33° C., read-out: EC50 (class)
SARS-Cov-2 3CLpro = target: T1, SARS-Cov-2 3CLpro (Severe acute respiratory syndrome coronavirus 2, UniProt P0DTD1); experiment: biochemical; settings: 3CLpro, 30 mins preincubation, SAMDI-MS; read-out: SARS-Cov-2 IC50 (class)
T1 construct: 3CLpro and HRV3C was added using a Multidrop Combi

HRV3C = target: T2, HRV3C (Human rhinovirus 14, UniProt P03303); experiment: biochemical; parameters: species or system HRV; settings: HRV3C, 30 mins preincubation, SAMDI-MS; read-out: HRV IC50 (bound)
T2 construct: 3CLpro and HRV3C was added using a Multidrop Combi
T2 sequence (P03303 1538-1719): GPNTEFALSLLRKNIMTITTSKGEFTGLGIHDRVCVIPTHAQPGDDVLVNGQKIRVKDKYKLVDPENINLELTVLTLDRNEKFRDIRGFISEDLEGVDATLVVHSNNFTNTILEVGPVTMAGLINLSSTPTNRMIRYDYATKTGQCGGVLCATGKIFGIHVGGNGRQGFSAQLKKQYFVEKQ

human cathepsin L = target: T3, human cathepsin L (Homo sapiens, UniProt P07711); experiment: Cathepsin L assay (Z-FR-AMC fluorescence); format: biochemical; settings: 10 pM human cathepsin L, 30 mins preincubation, Z-FR-AMC 2 μM
T3 construct: purchased R&D Systems
T3 sequence (P07711 114-333): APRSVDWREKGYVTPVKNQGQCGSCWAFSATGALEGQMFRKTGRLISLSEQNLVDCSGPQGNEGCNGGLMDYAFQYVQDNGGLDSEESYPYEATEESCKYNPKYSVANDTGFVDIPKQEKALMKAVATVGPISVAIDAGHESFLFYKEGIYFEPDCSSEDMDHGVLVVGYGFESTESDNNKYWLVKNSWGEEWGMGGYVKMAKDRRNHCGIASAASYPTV
Method: For the cathepsin L assay, 10 pM of human cathepsin L (R&D Systems; Minneapolis, MN) was preincubated for 30 mins with test compounds. Reactions were initiated by the addition of a peptide substrate Z—FR-AMC (final concentration 2 μM, Anaspec; Fremont, CA). Fluorescence was measured at 2-minute intervals for 30 mins using a 355/460 excitation/emission filter module on an Envision plate reader (Perkin Elmer; Waltham, MA). The IC50 values were calculated for each assay by fitting the curves using a four-parameter equation in GraphPad Prism.

[3] = system: SARS-CoV-2-GHB-03021/2020; format: cell-based; settings: read-out: VeroE6 + CP (EC50)
[4] = Severe acute respiratory syndrome coronavirus 2, 96 h; read-out: A549-dual_ACE2_TMPRSS2 (EC50)

SMILES	pEC50 [1, 4]	pEC50 [2]	pIC50 (SARS-Cov-2 3CLpro)	pIC50 (HRV3C)	pIC50 (human cathepsin L)	pEC50 [3]	pEC50 ([1]; Severe acute respiratory syndrome coronavirus 2, 96 h, read-out: A549-dual_ACE2_TMPRSS2 (EC50))
CC(C)(C)[C@H](NC(=O)c1ccco1)C(=O)N1C[C@H]2[C@@H]([C@H]1C(=O)N[C@H](C#N)C[C@@H]1CCNC1=O)[C@H]1C=C[C@@H]2C1 [Example 19, (1S,3aR,4S,7R,7aS)-N-((S)-1-cyano-2-((S)-2-oxopyrrolidin-3-yl)ethyl)-2-((S)-2-(furan-2-carboxamido)-3,3-dimethylbutanoyl)-2,3,3a,4,7,7a-hexahydro-1H-4,7-methanoisoindole-1-carboxamide]	6.00 to 7.00	> 7.00	6.70 to 7.70	< 5.00	≤ 5.00	6.00 to 7.00	–
CC(C)(C)[C@H](NC(=O)C(F)(F)F)C(=O)N1C[C@H]2[C@@H]([C@H]1C(=O)NC(C#N)C[C@]13CC[C@H](C1)NC3=O)[C@H]1C=C[C@@H]2C1 (stereo partly drawn) [Example 26, (1S,3aR,4S,7R,7aS)—N-(1-cyano-2-((1R,4S)-3-oxo-2-azabicyclo[2.2.1]heptan-4-yl)ethyl)-2-((S)-3,3-dimethyl-2-(2,2,2-trifluoroacetamido)butanoyl)-2,3,3a,4,7,7a-hexahydro-1H-4,7-methanoisoindole-1-carboxamide]	6.00 to 7.00	6.00 to 7.00	6.70 to 7.70	< 5.00	≤ 5.00	6.00 to 7.00	–
CC(C)(C)[C@H](NC(=O)C(F)(F)F)C(=O)N1C[C@H]2[C@@H]([C@H]1C(=O)N[C@H](C#N)C[C@@H]1CCNC1=O)[C@H]1CC[C@@H]2C12CC2 [Example 18, (1′R,2′S,3′S,6′R,7′S)—N-[(1S)-1-cyano-2-[(3S)-2-oxopyrrolidin-3-yl]ethyl]-4′-[(2S)-3,3-dimethyl-2-(2,2,2-trifluoroacetamido)butanoyl]-4′-azaspiro[cyclopropane-1,10′-tricyclo[5.2.1.0^{2,6}]decane]-3′-carboxamide]	6.00 to 7.00	> 7.00	> 7.70	< 5.00	≤ 5.00	> 7.00	–
N#C[C@H](C[C@@H]1CCNC1=O)NC(=O)[C@@H]1[C@@H]2[C@H](CN1C(=O)[C@@H]1C[C@]13CCOc1ccccc13)[C@@H]1C=C[C@H]2C1 (relative stereo) [Compound 55, (1S,3aR,4S,7R,7aS)-N-((S)-1-cyano-2-((S)-2-oxopyrrolidin-3-yl)ethyl)-2-((2′R*,4S*)-spiro[chromane-4,1′-cyclopropane]-2′-carbonyl)-2,3,3a,4,7,7a-hexahydro-1H-4,7-methanoisoindole-1-carboxamide]	6.00 to 7.00	5.00 to 6.00	6.70 to 7.70	< 5.00	≤ 5.00	6.00 to 7.00	–
CC(C)(C)[C@H](NC(=O)[C@H]1CC1(F)F)C(=O)N1C[C@H]2[C@@H]([C@H]1C(=O)N[C@H](C#N)C[C@@H]1CCNC1=O)[C@H]1C=C[C@@H]2C1 [Example 33, (1S,3aR,4S,7R,7aS)-N-((S)-1-cyano-2-((S)-2-oxopyrrolidin-3-yl)ethyl)-2-((S)-2-((R)-2,2-difluorocyclopropane-1-carboxamido)-3,3-dimethylbutanoyl)-2,3,3a,4,7,7a-hexahydro-1H-4,7-methanoisoindole-1-carboxamide]	6.00 to 7.00	> 7.00	> 7.70	< 5.00	≤ 5.00	> 7.00	–
CC(C)(C)[C@H](NC(=O)C(F)(F)Cl)C(=O)N1C[C@@H]2[C@@H]3CC[C@@H](C3)[C@@H]2[C@H]1C(=O)N[C@H](C#N)C[C@@H]1CCNC1=O [Example 40, (1S,2S,3S,6R,7R)-4-[(2S)-2-(2-chloro-2,2-difluoroacetamido)-3,3-dimethylbutanoyl]-N-[(1S)-1-cyano-2-[(3S)-2-oxopyrrolidin-3-yl]ethyl]-4-azatricyclo[5.2.1.0^{2,6}]decane-3-carboxamide]	> 7.00	> 7.00	> 7.70	< 5.00	≤ 5.00	> 7.00	–
CC(C)(C)[C@H](NC(=O)C(F)(F)F)C(=O)N1C[C@H]2[C@@H]([C@H]1C(=O)N[C@H](C#N)C[C@@H]1CCNC1=O)[C@H]1C=C[C@@H]2C1 [Example 1, (1S,3aR,4S,7R,7aS)-N-((S)-1-cyano-2-((S)-2-oxopyrrolidin-3-yl)ethyl)-2-((S)-3,3-dimethyl-2-(2,2,2-trifluoroacetamido)butanoyl)-2,3,3a,4,7,7a-hexahydro-1H-4,7-methanoisoindole-1-carboxamide]	> 7.00	> 7.00	> 7.70	< 5.00	≤ 5.00	> 7.00	–
CC(C)(C)[C@H](NC(=O)C(F)(F)F)C(=O)N1C[C@@H]2[C@@H]3CC[C@@H](C3)[C@@H]2[C@H]1C(=O)N[C@H](C#N)CC1Cn2nccc2NC1=O (relative stereo) [Compound 17a, (1S,3aR,4R,7S,7aS)-N-((S)-1-cyano-2-((R*)-5-oxo-4,5,6,7-tetrahydropyrazolo[1,5-a]pyrimidin-6-yl)ethyl)-2-((S)-3,3-dimethyl-2-(2,2,2-trifluoroacetamido)butanoyl)octahydro-1H-4,7-methanoisoindole-1-carboxamide]	6.00 to 7.00	> 7.00	> 7.70	< 5.00	≤ 5.00	> 7.00	–
N#C[C@H](C[C@@H]1CCNC1=O)NC(=O)[C@@H]1[C@@H]2[C@H](CN1C(=O)[C@@H]1C[C@]13CCc1ccccc13)[C@@H]1C=C[C@H]2C1 (single isomer, unassigned) [Example 38, (1S,3aR,4S,7R,7aS)-N-((S)-1-cyano-2-((S)-2-oxopyrrolidin-3-yl)ethyl)-2-((1R*,2R*)-2′,3′-dihydrospiro[cyclopropane-1,1′-indene]-2-carbonyl)-2,3,3a,4,7,7a-hexahydro-1H-4,7-methanoisoindole-1-carboxamide]	–	5.00 to 6.00	–	–	≤ 5.00	6.00 to 7.00	5.00 to 6.00
CC(C)(C)[C@H](NC(=O)CC(F)(F)F)C(=O)N1C[C@H]2[C@@H]([C@H]1C(=O)N[C@H](C#N)C[C@@H]1OCCNC1=O)[C@H]1C=C[C@@H]2C1 [Compound 132]	> 7.00	> 7.00	> 7.70	< 6.30	≤ 5.00	–	–
CC(C)(C)[C@H](NC(=O)C(C)(C)C(F)(F)F)C(=O)N1C[C@H]2[C@@H]([C@H]1C(=O)N[C@H](C#N)C[C@@H]1CCNC1=O)[C@H]1C=C[C@@H]2C1 [Compound 75]	> 7.00	6.00 to 7.00	> 7.70	< 5.00	≤ 5.00	–	–
COC(C)(C)[C@H](NC(=O)C(F)(F)C(F)(F)F)C(=O)N1C[C@H]2[C@@H]([C@H]1C(=O)N[C@H](C#N)C[C@@H]1CCNC1=O)[C@H]1C=C[C@@H]2C1 [Compound 131]	> 7.00	> 7.00	> 7.70	< 6.30	≤ 5.00	–	–
CC(C)(C)[C@H](NC(=O)C(F)(F)F)C(=O)N1C[C@H]2[C@@H]([C@H]1C(=O)N[C@H](C#N)C[C@@H]1CCNC1=O)[C@H]1C=C[C@@H]2C1F (stereo in doubt) [Example 91, (1S,3aS,4S,7R,7aR,8S)—N-((S)-1-cyano-2-((S)-2-oxopyrrolidin-3-yl)ethyl)-2-((S)-3,3-dimethyl-2-(2,2,2-trifluoroacetamido)butanoyl)-8-fluoro-2,3,3a,4,7,7a-hexahydro-1H-4,7-methanoisoindole-1-carboxamide]	> 7.00	> 7.00	> 7.70	< 6.30	≤ 5.00	–	–
CC(C)(C)[C@H](NC(=O)C(F)(F)F)C(=O)N1C[C@H]2[C@@H]([C@H]1C(=O)N[C@H](C#N)C[C@@H]1Oc3ccncc3NC1=O)[C@H]1C=C[C@@H]2C1 [Compound 109, (1S,3aR,4S,7R,7aS)-N-((S)-1-cyano-2-((S)-3-oxo-3,4-dihydro-2H-pyrido[4,3-b][1,4]oxazin-2-yl)ethyl)-2-((S)-3,3-dimethyl-2-(2,2,2-trifluoroacetamido)butanoyl)-2,3,3a,4,7,7a-hexahydro-1H-4,7-methanoisoindole-1-carboxamide]	> 7.00	> 7.00	> 7.70	< 6.30	≤ 5.00	–	–
CC(C)(C)[C@H](NC(=O)C(F)(F)F)C(=O)N1C[C@H]2[C@@H]([C@H]1C(=O)N[C@H](C#N)C[C@@H]1CCNC1=O)[C@H]1CC[C@@H]2O1 (relative stereo) [Compound 58b]	5.00 to 6.00	5.00 to 6.00	5.70 to 6.70	< 5.00	≤ 5.00	–	–
